Results: publication PMC6116705, “Design, synthesis, in vitro antiproliferative activity and apoptosis-inducing studies of 1-(3′,4′,5′-trimethoxyphenyl)-3-(2′-alkoxycarbonylindolyl)-2-propen-1-one derivatives obtained by a molecular hybridisation approach” (Journal of Enzyme Inhibition and Medicinal Chemistry, 2018)

Legend:
bovine brain tubulin = test: Inhibition of tubulin polymerisation (turbidimetric tubulin assembly); assay type: biochemical; settings: tubulin 10 µM, 20 min at 30 °C; read-out: Tubulin assembly IC50±SD
Experimental: To evaluate the effect of the compounds on tubulin assembly in vitro[40], varying concentrations of compounds were preincubated with 10 μM bovine brain tubulin in 0.8M monosodium glutamate (pH adjusted to 6.6 with HCl in a 2.0M stock solution) at 30 °C and then cooled to 0 °C. After addition of 0.4 mM GTP, the mixtures were transferred to 0 °C cuvettes in a recording spectrophotometer and warmed to 30 °C. Tubulin assembly was followed turbidimetrically at 350 nm. […] The capacity of the test compounds to inhibit colchicine binding to tubulin was measured as described. The reaction mixtures contained 1 μM tubulin, 5 μM [^3H]colchicine and 5 μM test compound.

[1] = tested on: U-937 cells overexpressing human Bcl-2 (U-937/Bcl-2); test: MTT cytotoxicity assay, U-937/Bcl-2; assay type: cell-based; settings: Homo sapiens, U-937, 72 h, U-937/Bcl-2, MTT, read-out: IC50, inhibition of cell growth
Experimental: U-937 (human myeloid leukaemia) cells from DSMZ (German Collection of Microorganisms and Cell Cultures, Braunschweig, Germany) and U-937 cells overexpressing human Bcl-2 protein (designated U-937/Bcl-2, donated by Dr Jacqueline Bréard, INSERM U749, Faculté de Pharmacie Paris-Sud., Châtenay-Malabry, France) were cultured in RPMI-1640 medium containing 10% (v/v) heat-inactivated foetal bovine serum, 100 μg/mL streptomycin and 100 U/mL penicillin, incubated at 37 °C in a humidified atmosphere containing 5% CO2 as described. The functioning of U-937/Bcl-2 cells was tested using the cytotoxic agent 1-β-D-arabino-furanosylcytosine as previously described. Human peripheral blood mononuclear cells (PBMC) were isolated from heparin-anticoagulated blood of healthy volunteers by centrifugation with Ficoll-Paque Plus (GE Healthcare Bio-Sciences AB, Uppsala, Sweden). PBMC were also stimulated with phytohemagglutinin (2 μg/mL) for 48 h before the experimental treatment. The trypan blue dye exclusion method was used for counting the living/dead cells by a hematocytometer with 95% viability in all experiments. The cytotoxicity of compounds was evaluated by the colorimetric 3-(4,5-dimethyl-2-thiazolyl-)-2,5-diphenyl-2H-tetrazolium bromide (MTT) assay as previously described. Briefly, 5 × 10^3 exponentially growing cells were seeded in 96-well microculture plates with increasing concentrations of compounds for 72 h. After the addition of MTT (0.5 mg/mL), cells were incubated at 37 °C for 4 h. Sodium dodecyl sulphate (10% w/v) in 0.05 M HCl was added to the wells and then incubated at room temperature overnight in the dark. Absorbance was measured at 570 nm. […] Values are mean ± SE from at least three independent experiments, each performed in triplicate. Compounds were dissolved in DMSO and kept in the dark at 25 °C.

U-937/Bcl-2 cells = test: Cell cycle phase distribution and apoptosis, flow cytometry (propidium iodide) and fluorescence microscopy, U-937/Bcl-2; assay type: cell-based, human
Experimental: (§1) Fluorescent microscopy and flow cytometric analysis of propidium iodide-stained cells were performed as described. Briefly, cells were harvested and fixed in 3% paraformaldehyde and incubated at room temperature for 10 min. The fixative was removed, and the cells were washed with PBS, resuspended in 30–50 μL of PBS containing 20 μg/mL bis-benzimide trihydrochloride (Hoechst 33258) and incubated at room temperature for 15 min. Stained nuclei were visualized using a Zeiss fluorescence microscope.
(§2) Flow cytometric analysis was carried out using a BD FACSVerse™ cytometer (BD Biosciences, San Jose, CA, USA).

U-937 cells = test: Cell cycle phase distribution and apoptosis, flow cytometry (propidium iodide) and fluorescence microscopy, U-937; assay type: cell-based, human
Experimental: as §1, §2

[2] = tested on: human colon adenocarcinoma (HT29) cells; test: Antiproliferative assay, cell counting (Coulter Counter), HT29; assay type: cell-based; settings: HT29 cell line, ratio of IC50 values
Experimental: (§3) Human cervix carcinoma (HeLa), human colon carcinoma (HT29), human breast carcinoma (MCF-7) and human lymphoma (HL-60) cells (3–5 × 10^4 cells) and a serial (five-fold) dilution of the test compounds were added to a 96-well microtiter plate. The cells were incubated for 72–96 h (depending on the tumor cell line) at 37 °C in a humidified 5% CO2 atmosphere. At the end of the incubation period, the cells were counted in a Coulter Counter (Coulter Electronics Ltd, Harpenden Herts, UK). […] The IC50 values represent the average (±standard deviation) of at least two to four independent experiments.

[3] = tested on: human promyelocytic leukemia (HL-60) cells; test: Antiproliferative assay, cell counting (Coulter Counter), HL-60; assay type: cell-based; settings: Homo sapiens; HL-60, 72–96 h; read-out: IC50, inhibition of proliferation
Experimental: as §3

Q: Which results are given for `CCOC(=O)c1[nH]c2cc(OC)ccc2c1/C=C/C(=O)c1cc(OC)c(OC)c(OC)c1` [Compound 9f, (E)-Ethyl 6-methoxy-3-(3-oxo-3-(3,4,5-trimethoxyphenyl)prop-1-en-1-yl)-1H-indole-2-carboxylate]?
A: IC50 (bovine brain tubulin): 17 ± 2 µM; IC50 [1]: 1 ± 0.8 µM; % G1 (U-937/Bcl-2 cells; U-937/Bcl-2, 24 h, 0.3 µM): 26.0 ± 0.9 %; % G2-M (U-937/Bcl-2 cells; U-937/Bcl-2, 24 h, 0.3 µM): 41.1 ± 0.4 %; % S (U-937/Bcl-2 cells; U-937/Bcl-2, 24 h, 0.3 µM): 25.2 ± 0.3%; % Sub-G1 (U-937/Bcl-2 cells; U-937/Bcl-2, 24 h, 0.3 µM): 6.2 ± 0.9%; % G1 (U-937/Bcl-2 cells; U-937/Bcl-2, 24 h, 1 µM): 17.6 ± 0.6 %; % G2-M (U-937/Bcl-2 cells; U-937/Bcl-2, 24 h, 1 µM): 41.0 ± 2.3 %; % S (U-937/Bcl-2 cells; U-937/Bcl-2, 24 h, 1 µM): 18.1 ± 0.1 %; % Sub-G1 (U-937/Bcl-2 cells; U-937/Bcl-2, 24 h, 1 µM): 20.6 ± 1.6 %; % G1 (U-937/Bcl-2 cells; U-937/Bcl-2, 48 h, 0.3 µM): 27.4 ± 0.8 %; % G2-M (U-937/Bcl-2 cells; U-937/Bcl-2, 48 h, 0.3 µM): 31.6 ± 0.3 %; % S (U-937/Bcl-2 cells; U-937/Bcl-2, 48 h, 0.3 µM): 26.3 ± 0.4%; % Sub-G1 (U-937/Bcl-2 cells; U-937/Bcl-2, 48 h, 0.3 µM): 11.1 ± 0.1 %; % G1 (U-937/Bcl-2 cells; U-937/Bcl-2, 48 h, 1 µM): 16.0 ± 0.0 %; % G2-M (U-937/Bcl-2 cells; U-937/Bcl-2, 48 h, 1 µM): 28.4 ± 1.8 %; % S (U-937/Bcl-2 cells; U-937/Bcl-2, 48 h, 1 µM): 16.5 ± 1.0 %; % Sub-G1 (U-937/Bcl-2 cells; U-937/Bcl-2, 48 h, 1 µM): 30.2 ± 3.3 %; % G1 (U-937/Bcl-2 cells; U-937/Bcl-2, 72 h, 0.3 µM): 30.3 ± 2.9 %; % G2-M (U-937/Bcl-2 cells; U-937/Bcl-2, 72 h, 0.3 µM): 29.4 ± 2.0 %; % S (U-937/Bcl-2 cells; U-937/Bcl-2, 72 h, 0.3 µM): 23.8 ± 0.7%; % Sub-G1 (U-937/Bcl-2 cells; U-937/Bcl-2, 72 h, 0.3 µM): 11.8 ± 0.5 %; % G1 (U-937/Bcl-2 cells; U-937/Bcl-2, 72 h, 1 µM): 14.0 ± 0.6 %; % G2-M (U-937/Bcl-2 cells; U-937/Bcl-2, 72 h, 1 µM): 22.7 ± 0.2%; % S (U-937/Bcl-2 cells; U-937/Bcl-2, 72 h, 1 µM): 17.1 ± 1.4%; % Sub-G1 (U-937/Bcl-2 cells; U-937/Bcl-2, 72 h, 1 µM): 37.7 ± 1.5 %; % G1 (U-937 cells; U-937, 24 h, 3 µM): 42.7 ± 0.5%; % G2-M (U-937 cells; U-937, 24 h, 3 µM): 25.2 ± 0.1%; % S (U-937 cells; U-937, 24 h, 3 µM): 24.6 ± 0.8%; % Sub-G1 (U-937 cells; U-937, 24 h, 3 µM): 5.9 ± 0.3%; % G1 (U-937 cells; U-937, 24 h, 10 µM): 36.7 ± 1.8 %; % G2-M (U-937 cells; U-937, 24 h, 10 µM): 23.8 ± 0.4%; % S (U-937 cells; U-937, 24 h, 10 µM): 25.5 ± 0.5%; % Sub-G1 (U-937 cells; U-937, 24 h, 10 µM): 11.9 ± 1.6 %; % G1 (U-937 cells; U-937, 48 h, 3 µM): 51.0 ± 0.5%; % G2-M (U-937 cells; U-937, 48 h, 3 µM): 19.2 ± 0.5%; % S (U-937 cells; U-937, 48 h, 3 µM): 24.0 ± 0.3%; % Sub-G1 (U-937 cells; U-937, 48 h, 3 µM): 5.1 ± 0.1%; % G1 (U-937 cells; U-937, 48 h, 10 µM): 47.1 ± 1.1 %; % G2-M (U-937 cells; U-937, 48 h, 10 µM): 18.2 ± 0.1%; % S (U-937 cells; U-937, 48 h, 10 µM): 23.4 ± 0.3%; % Sub-G1 (U-937 cells; U-937, 48 h, 10 µM): 10.1 ± 0.6 %; % G1 (U-937 cells; U-937, 72 h, 3 µM): 53.1 ± 2.0%; % G2-M (U-937 cells; U-937, 72 h, 3 µM): 16.5 ± 0.6%; % S (U-937 cells; U-937, 72 h, 3 µM): 22.3 ± 1.4%; % Sub-G1 (U-937 cells; U-937, 72 h, 3 µM): 6.4 ± 0.6%; % G1 (U-937 cells; U-937, 72 h, 10 µM): 43.3 ± 1.7%; % G2-M (U-937 cells; U-937, 72 h, 10 µM): 15.0 ± 0.6%; % S (U-937 cells; U-937, 72 h, 10 µM): 21.2 ± 1.2%; % Sub-G1 (U-937 cells; U-937, 72 h, 10 µM): 19.0 ± 3.3 %; fold more potent than CA-4 [2]: 8–24 fold; IC50 [3]: 5.2 ± 2.2 µM
